The values below come from PMC11375794, “Discovery of new Hsp90–Cdc37 protein–protein interaction inhibitors: in silico screening and optimization of anticancer activity” (RSC Advances, 2024).

Molecules are shown by their SMILES. Some results are limits rather than exact numbers.

Holding throughout (assay type): cell-based
The subject of one assay is leukemia cell line THP-1. Briefly: MTS cell viability (antiproliferative) assay in THP-1. Conditions: Homo sapiens, THP-1, 72 hours, mean ± SD. As for the experimental part:
(§1) Hormone-positive breast cancer cell line MCF-7 (ATCC-HTB-22; ATCC) was grown in Dulbecco's Modified Eagle's Medium (DMEM), while Ewing sarcoma cell line SK-N-MC (a kind gift from Beat Schäfer) and THP-1 (ATCC-TIB-202; ATCC) cells were grown in Roswell Park Memorial Institute (RPMI) 1640. The medium was supplemented with 10% heat-inactivated fetal bovine serum (Gibco, Thermo Fisher Scientific, Waltham, MA, USA), 100 U per mL penicillin, 100 μg per mL streptomycin, and 2 mM L-glutamine (all from Sigma-Aldrich, St. Louis, MO, USA). All cell lines were incubated at 37 °C in a 5% CO2 atmosphere.
(§2) The antiproliferative activity of the compounds was evaluated against MCF-7 (ATCC-HTB-22; ATCC), SK-N-MC (a kind gift from Beat Schäfer) and THP-1 (ATCC-TIB-202; ATCC) cancer cell lines using the MTS assay (Promega, Madison, WI, USA). Cells were seeded in 96-well plates at a density of 2 × 10^4 cells per mL in 100 μL of growth medium for THP-1 and were treated with compounds and controls directly, while 3 × 10^3 cells per mL for MCF-7 and SK-N-MC were seeded in 100 μL of growth medium and allowed to adhere overnight following the treatment. In all cases the cells were treated with respective newly prepared compounds, positive controls (17-DMAG for MCF-7 and SK-N-MC; PU-H71 for THP-1) and a vehicle control (0.5% DMSO). The incubation time after treatment was 72 hours, then CellTiter96® Aqueous One Solution Reagent (Promega, Madison, WI, USA) was added to each well. Following a 3 hours incubation, absorbance was measured at 492 nm using BioTek's Synergy™ 4 Hybrid Microplate Reader (Winooski, VT, USA). The measurements were performed in two biological repetitions and each time the experiment was performed in a triplicate. The IC50 values, representing the concentration of inhibitor required for half-maximal inhibition, are the average of three independent experiments and were calculated using GraphPad Prism 9.5.0 software (San Diego, CA, USA).

For assay [1], the system named is Ewing sarcoma cell line SK-N-MC. Briefly: MTS cell viability (antiproliferative) assay in SK-N-MC. The note with it: Homo sapiens, SK-N-MC, 72 hours, mean ± SD. Here is the method: as §1, §2
Assay [2] relates to MCF-7 breast cancer cell line. The assay is described as follows: MTS cell viability (antiproliferative) assay in MCF-7. The note with it: Homo sapiens, MCF7, 72 h, MTS assay, 72 hours, mean ± SD. Here is the method: as §1, §2

For orientation: IC50 means the concentration that gives 50% inhibition. Take `O=C(NCCOc1ccccc1)c1cccc(Nc2cc(N3CCNCC3)ncn2)c1` [Compound 13b, N-(2-Phenoxyethyl)-3-((6-(piperazin-1-yl)pyrimidin-4-yl)amino)benzamide]: the figures for the IC50 (in the assay with leukemia cell line THP-1; in assay [1]; in assay [2]) were above 50 µM, 22.2 ± 0.2 µM and 22.5 ± 3.3 µM, respectively.

`CN(CCOc1ccccc1)C(=O)c1csc(Nc2cc(N3CCCC3)ncn2)n1` [Compound 6c, N-Methyl-N-(2-phenoxyethyl)-2-((6-(pyrrolidin-1-yl)pyrimidin-4-yl)amino)thiazole-4-carboxamide]: the results for the IC50 (with leukemia cell line THP-1; in assay [1]; in assay [2]) were above 50 µM, 26.2 ± 0.4 µM and 28.1 ± 1.4 µM, respectively.

Turning to `CN(Cc1ccccc1)C(=O)c1csc(Nc2cc(N3CCCC3)ncn2)n1` [Compound 6a, N-Benzyl-N-methyl-2-((6-(pyrrolidin-1-yl)pyrimidin-4-yl)amino)thiazole-4-carboxamide], the IC50 in assay [2] worked out at 20.8 ± 2.2 µM.

In the case of `O=C(NCCOc1ccccc1)c1cccc(Nc2cc(N3CCCC3)ncn2)c1` [Compound 11b, N-(2-Phenoxyethyl)-3-((6-(pyrrolidin-1-yl)pyrimidin-4-yl)amino)benzamide], the IC50 is above 50 µM in the assay with leukemia cell line THP-1, 26.9 ± 1 µM in assay [1] and 14.6 ± 4.5 µM in assay [2].

With `O=C(NCCOc1ccccc1)c1ccc(Nc2cc(N3CCCCC3)ncn2)cc1` [Compound 19, N-(2-Phenoxyethyl)-4-((6-(piperidin-1-yl)pyrimidin-4-yl)amino)benzamide], the IC50 in assay [2] is above 50 µM.

Regarding `CN(CCOc1ccccc1)C(=O)c1cccc(Nc2cc(N3CCCC3)ncn2)c1` [Compound 11e, N-Methyl-N-(2-phenoxyethyl)-3-((6-(pyrrolidin-1-yl)pyrimidin-4-yl)amino)benzamide], the IC50 in assay [2] was 34.1 ± 2.9 µM.

As for `O=C(NCCc1ccccc1)c1ccc(Nc2cc(N3CCCC3)ncn2)cc1` [Compound 11f, N-Phenethyl-4-((6-(pyrrolidin-1-yl)pyrimidin-4-yl)amino)benzamide], the IC50 in assay [2] was above 50 µM.

As for `CN(CCc1ccccc1)C(=O)c1cccc(Nc2cc(N3CCCC3)ncn2)c1` [Compound 11d, N-Methyl-N-phenethyl-3-((6-(pyrrolidin-1-yl)pyrimidin-4-yl)amino)benzamide], the IC50 in assay [2] came to 29.1 ± 5 µM.

For `CN(Cc1ccccc1)C(=O)c1ccc(Nc2cc(N3CCCC3)ncn2)cc1` [Compound 11h, N-Benzyl-N-methyl-4-((6-(pyrrolidin-1-yl)pyrimidin-4-yl)amino)benzamide], the IC50 in assay [2] is 18.3 ± 7 µM.

In the case of `O=C(NCCOc1ccccc1)c1ccc(Nc2cc(N3CCC(O)CC3)ncn2)cc1` [Compound 21, 4-((6-(4-Hydroxypiperidin-1-yl)pyrimidin-4-yl)amino)-N-(2-phenoxyethyl)benzamide], the IC50 in assay [2] is above 50 µM.

As for `CN(CCc1ccccc1)C(=O)c1csc(Nc2cc(N3CCCC3)ncn2)n1` [Compound 6b, N-Methyl-N-phenethyl-2-((6-(pyrrolidin-1-yl)pyrimidin-4-yl)amino)thiazole-4-carboxamide], in assay [2], the IC50 was determined as 15.2 ± 0.7 µM.

Consider `CN(Cc1ccccc1)C(=O)c1cccc(Nc2cc(N3CCCC3)ncn2)c1` [Compound 11c, N-Benzyl-N-methyl-3-((6-(pyrrolidin-1-yl)pyrimidin-4-yl)amino)benzamide], for which, in assay [2], the IC50 was determined as 36.7 ± 6.1 µM.

As to `CN(Cc1ccccc1)C(=O)c1csc(Nc2cc(N3CCNCC3)ncn2)n1` [Compound 8a, N-Benzyl-N-methyl-2-((6-(piperazin-1-yl)pyrimidin-4-yl)amino)thiazole-4-carboxamide], the IC50 in assay [2] worked out at 17.1 ± 1.4 µM.

Turning to `O=C(NCCOc1ccccc1)c1ccc(Nc2cc(N3CCOCC3)ncn2)cc1` [Compound 20, 4-((6-Morpholinopyrimidin-4-yl)amino)-N-(2-phenoxyethyl)benzamide], in assay [2], the IC50 was above 50 µM.

Turning to `O=C(NCCc1ccccc1)c1cccc(Nc2cc(N3CCNCC3)ncn2)c1` [Compound 13a, N-Phenethyl-3-((6-(piperazin-1-yl)pyrimidin-4-yl)amino)benzamide], the IC50 in assay [2] came to 31.9 ± 3.2 µM.
